Measured values as given in patent publication US20240158446A1, “CYCLIC COMPOUND HAVING SELECTIVE INHIBITORY ACTION ON KRAS OVER HRAS AND NRAS” (CHUGAI SEIYAKU KABUSHIKI KAISHA, priority 2021, published 2024).

Experiments:
[1] = system: human lung cancer strain NCI-H441;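 note: cell proliferation inhibition after four days measured by CellTiter-Glo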
[2] = target: GDP-bound NRAS wild-type protein (Homo sapiens, UniProt P01111); assay: Binding to NRAS by surface plasmon resonance (SPR), Single Cycle Kinetics; settings: SPR, GDP-bound NRAS wild-type protein vs GDP-bound KRAS wild-type protein
[3] = target: GDP-bound KRAS wild-type protein (Homo sapiens, UniProt P01116); assay: Binding to KRAS by surface plasmon resonance (SPR), Single Cycle Kinetics; settings: SPR, Single Cycle Kinetics, GDP-bound KRAS wild-type protein; read-out: KRAS KD
[4] = target: GDP-bound HRAS wild-type protein (Homo sapiens, UniProt P01112); assay: Binding to HRAS by surface plasmon resonance (SPR), Single Cycle Kinetics; settings: SPR, GDP-bound HRAS wild-type protein vs GDP-bound KRAS wild-type protein
Sequence of GDP-bound HRAS wild-type protein (P01112 whole entry): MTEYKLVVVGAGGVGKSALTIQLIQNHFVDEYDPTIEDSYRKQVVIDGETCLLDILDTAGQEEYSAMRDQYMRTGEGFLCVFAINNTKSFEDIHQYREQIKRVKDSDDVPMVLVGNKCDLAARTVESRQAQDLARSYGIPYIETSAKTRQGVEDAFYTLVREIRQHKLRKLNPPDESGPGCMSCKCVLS

Sequence of GDP-bound NRAS wild-type protein (P01111 whole entry): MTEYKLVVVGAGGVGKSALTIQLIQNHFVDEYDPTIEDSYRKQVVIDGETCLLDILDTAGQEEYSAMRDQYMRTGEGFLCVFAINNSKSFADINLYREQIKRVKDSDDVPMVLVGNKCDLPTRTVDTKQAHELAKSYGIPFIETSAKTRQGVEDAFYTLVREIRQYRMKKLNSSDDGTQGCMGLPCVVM
Sequence of GDP-bound KRAS wild-type protein (P01116 whole entry): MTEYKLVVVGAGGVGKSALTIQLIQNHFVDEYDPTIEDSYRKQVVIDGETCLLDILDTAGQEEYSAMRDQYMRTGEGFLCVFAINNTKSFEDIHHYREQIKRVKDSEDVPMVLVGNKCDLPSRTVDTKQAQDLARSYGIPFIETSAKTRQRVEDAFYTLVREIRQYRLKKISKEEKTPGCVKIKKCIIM

SMILES | IC50 [1] [nM] | Kd [3] [nM] | NRAS/KRAS (ratio of KD value for NRAS to KD value for KRAS) [2] | HRAS/KRAS (ratio of KD value for HRAS to KD value for KRAS) [4]
CCOC[C@H]1C(=O)N[C@@H]([C@@H](C)CC)C(=O)N(C)CC(=O)N(C)[C@H]2C/C=C\CCN(C2=O)[C@@H](CC2CCC(F)(F)CC2)C(=O)N(C)CC(=O)N[C@@H](CCc2ccc(C(F)(F)F)c(OC)c2)C(=O)N2C[C@@H](C)C[C@H]2C(=O)NC2(CC(C)(C)C2)C(=O)N(C)[C@@H](C(CC)CC)C(=O)N(C)[C@H](C(=O)N(C)C)CC(=O)N1C [PP2458] | 80.7 | 1.3 | A (a compound having 10 or more and less than 20 is denoted as A) | A (a compound having 10 or more and less than 20 is denoted as A)
CCOC[C@H]1C(=O)N[C@@H]([C@@H](C)CC)C(=O)N(C)CC(=O)N(C)[C@H]2C/C=C\CCN(C2=O)[C@@H](CC2CCC(F)(F)CC2)C(=O)N(C)CC(=O)N[C@@H](CCc2ccc(C(F)(F)F)c(Cl)c2)C(=O)N2C[C@H](OCC)C[C@H]2C(=O)NC2(CC(C)(C)C2)C(=O)N(C)[C@@H](C(CC)CC)C(=O)N(C)[C@H](C(=O)N(C)C)CC(=O)N1C [PP2460] | 18.7 | 0.71 | A (a compound having 10 or more and less than 20 is denoted as A) | A (a compound having 10 or more and less than 20 is denoted as A)
CCCOC[C@H]1C(=O)N[C@@H]([C@@H](C)CC)C(=O)N(C)CC(=O)N(C)[C@H]2C/C=C\CCN(C2=O)[C@@H](Cc2ccc(C)cc2)C(=O)N(C)CC(=O)N[C@@H](CCc2ccc(C(F)(F)F)c(OC)c2)C(=O)N2C[C@@H](C)C[C@H]2C(=O)NC2(CC(C)(C)C2)C(=O)N(C)[C@@H](C2CCCC2)C(=O)N(C)[C@H](C(=O)N(C)CC)CC(=O)N1C [PP2461] | 10.6 | 0.15 | A (a compound having 10 or more and less than 20 is denoted as A) | A (a compound having 10 or more and less than 20 is denoted as A)
CCOC[C@H]1C(=O)N[C@@H]([C@@H](C)CC)C(=O)N(C)CC(=O)N(C)[C@H]2C/C=C\CCN(C2=O)[C@@H](CC2CCC(F)(F)CC2)C(=O)N(C)CC(=O)N[C@@H](CCc2cc(F)c(C(F)(F)F)c(F)c2)C(=O)N2C[C@@H](C)C[C@H]2C(=O)NC2(CC(C)(C)C2)C(=O)N(C)[C@@H](C(CC)CC)C(=O)N(C)[C@H](C(=O)N(C)C)CC(=O)N1C [PP2462] | 87.2 | 1.6 | A (a compound having 10 or more and less than 20 is denoted as A) | A (a compound having 10 or more and less than 20 is denoted as A)
CCCOC[C@H]1C(=O)N[C@@H]([C@@H](C)CC)C(=O)N(C)CC(=O)N(C)[C@H]2C/C=C\CCN(C2=O)[C@@H](Cc2ccc(C)cc2)C(=O)N(C)CC(=O)N[C@@H](CCc2ccc(C(F)(F)F)c(OC)c2)C(=O)N2C[C@H](OCC)C[C@H]2C(=O)NC2(CC(C)(C)C2)C(=O)N(C)[C@@H](C2CCCC2)C(=O)N(C)[C@H](C(=O)N(C)CC)CC(=O)N1C [PP2463] | 6.5 | 0.11 | A (a compound having 10 or more and less than 20 is denoted as A) | A (a compound having 10 or more and less than 20 is denoted as A)
CCCOC[C@H]1C(=O)N[C@@H]([C@@H](C)CC)C(=O)N(C)CC(=O)N(C)[C@H]2C/C=C\CCN(C2=O)[C@@H](CC2CCC(F)(F)CC2)C(=O)N(C)CC(=O)N[C@@H](CCc2ccc(C(F)(F)F)c(OC)c2)C(=O)N2C[C@H](OCC)C[C@H]2C(=O)NC2(CC(C)(C)C2)C(=O)N(C)[C@@H](C(CC)CC)C(=O)N(C)[C@H](C(=O)N(C)C)CC(=O)N1C [PP2464] | 66 | 0.98 | A (a compound having 10 or more and less than 20 is denoted as A) | A (a compound having 10 or more and less than 20 is denoted as A)
CCOC[C@H]1C(=O)N[C@@H]([C@@H](C)CC)C(=O)N(C)CC(=O)N(C)[C@H]2C/C=C\CCN(C2=O)[C@@H](Cc2ccc(C)cc2)C(=O)N(C)CC(=O)N[C@@H](CCc2ccc(C(F)(F)F)c(Cl)c2)C(=O)N2C[C@@H](C)C[C@H]2C(=O)NC2(CC(C)(C)C2)C(=O)N(C)[C@@H](C2CCCC2)C(=O)N(C)[C@H](C(=O)N(CC)CC)CC(=O)N1C [PP2465] | 39.4 | 0.51 | AA (a compound having 20 or more is denoted as AA) | A (a compound having 10 or more and less than 20 is denoted as A)

Now from value to compound, other results behind:

IC50 [1] [nM] | Kd [3] [nM] | SMILES | NRAS/KRAS (ratio of KD value for NRAS to KD value for KRAS) [2] | HRAS/KRAS (ratio of KD value for HRAS to KD value for KRAS) [4]
170 | 3.9 | CCC(CC)[C@H]1C(=O)N(C)[C@H](C(=O)N(C)C)CC(=O)N(C)[C@@H](COC)C(=O)N[C@@H]([C@@H](C)CC)C(=O)N(C)CC(=O)N(C)[C@H]2C/C=C\CCN(C2=O)[C@@H](CC2CCCCC2)C(=O)N(C)CC(=O)N[C@@H](CCc2ccc(C(F)(F)F)c(OC)c2)C(=O)N2C[C@@H](C)C[C@H]2C(=O)NC2(CC(C)(C)C2)C(=O)N1C [PP2466] | A (a compound having 10 or more and less than 20 is denoted as A) | A (a compound having 10 or more and less than 20 is denoted as A)
21.8 | 0.26 | CCCOC[C@H]1C(=O)N[C@@H]([C@@H](C)CC)C(=O)N(C)CC(=O)N(C)[C@H]2C/C=C\CCN(C2=O)[C@@H](Cc2ccc(C)cc2)C(=O)N(C)CC(=O)N[C@@H](CCc2ccc(C(F)(F)F)c(Cl)c2)C(=O)N2C[C@@H](C)C[C@H]2C(=O)NC2(CC(C)(C)C2)C(=O)N(C)[C@@H](C2CCCC2)C(=O)N(C)[C@H](C(=O)N(C)CC)CC(=O)N1C [PP2467] | A (a compound having 10 or more and less than 20 is denoted as A) | B (a compound having 3 or more and less than 10 is denoted as B)
72.2 | 1.3 | CCO[C@@H]1C[C@H]2C(=O)NC3(CC(C)(C)C3)C(=O)N(C)[C@@H](C(CC)CC)C(=O)N(C)[C@H](C(=O)N(C)C)CC(=O)N(C)[C@@H](COC)C(=O)N[C@@H]([C@@H](C)CC)C(=O)N(C)CC(=O)N(C)[C@H]3C/C=C\CCN(C3=O)[C@@H](CC3CCCCC3)C(=O)N(C)CC(=O)N[C@@H](CCc3ccc(C(F)(F)F)c(Cl)c3)C(=O)N2C1 [PP2468] | AA (a compound having 20 or more is denoted as AA) | A (a compound having 10 or more and less than 20 is denoted as A)
15.7 | 0.19 | CCCOC[C@H]1C(=O)N[C@@H]([C@@H](C)CC)C(=O)N(C)CC(=O)N(C)[C@H]2C/C=C\CCN(C2=O)[C@@H](Cc2ccc(C)cc2)C(=O)N(C)CC(=O)N[C@@H](CCc2ccc(C(F)(F)F)c(Cl)c2)C(=O)N2C[C@H](OCC)C[C@H]2C(=O)NC2(CC(C)(C)C2)C(=O)N(C)[C@@H](C2CCCC2)C(=O)N(C)[C@H](C(=O)N(C)CC)CC(=O)N1C [PP2469] | A (a compound having 10 or more and less than 20 is denoted as A) | B (a compound having 3 or more and less than 10 is denoted as B)
118 | 1.8 | CCOC[C@H]1C(=O)N[C@@H]([C@@H](C)CC)C(=O)N(C)CC(=O)N(C)[C@H]2C/C=C\CCN(C2=O)[C@@H](CC2CCCCC2)C(=O)N(C)CC(=O)N[C@@H](CCc2ccc(C(F)(F)F)c(OC)c2)C(=O)N2C[C@H](OCC)C[C@H]2C(=O)NC2(CC(C)(C)C2)C(=O)N(C)[C@@H](C(CC)CC)C(=O)N(C)[C@H](C(=O)N(C)C)CC(=O)N1C [PP2470] | A (a compound having 10 or more and less than 20 is denoted as A) | A (a compound having 10 or more and less than 20 is denoted as A)
15.3 | 0.16 | CCCOC[C@H]1C(=O)N[C@@H]([C@@H](C)CC)C(=O)N(C)CC(=O)N(C)[C@H]2C/C=C\CCN(C2=O)[C@@H](Cc2ccc(C)cc2)C(=O)N(C)CC(=O)N[C@@H](CCc2cc(F)c(C(F)(F)F)c(F)c2)C(=O)N2C[C@@H](C)C[C@H]2C(=O)NC2(CC(C)(C)C2)C(=O)N(C)[C@@H](C2CCCC2)C(=O)N(C)[C@H](C(=O)N(C)CC)CC(=O)N1C [PP2471] | A (a compound having 10 or more and less than 20 is denoted as A) | A (a compound having 10 or more and less than 20 is denoted as A)
42.3 | 0.58 | CCCOC[C@H]1C(=O)N[C@@H]([C@@H](C)CC)C(=O)N(C)CC(=O)N(C)[C@H]2C/C=C\CCN(C2=O)[C@@H](CC2CCC(F)(F)CC2)C(=O)N(C)CC(=O)N[C@@H](CCc2cc(F)c(C(F)(F)F)c(F)c2)C(=O)N2C[C@H](OCC)C[C@H]2C(=O)NC2(CC(C)(C)C2)C(=O)N(C)[C@@H](C(CC)CC)C(=O)N(C)[C@H](C(=O)N(C)C)CC(=O)N1C [PP2472] | A (a compound having 10 or more and less than 20 is denoted as A) | A (a compound having 10 or more and less than 20 is denoted as A)
176 | 1.5 | CCOC[C@H]1C(=O)N[C@@H]([C@@H](C)CC)C(=O)N(C)CC(=O)N(C)[C@H]2C/C=C\CCN(C2=O)[C@@H](CC2CCC(F)(F)CC2)C(=O)N(C)CC(=O)N[C@@H](CCc2ccc(C(F)(F)F)c(Cl)c2)C(=O)N2C[C@@H](C)C[C@H]2C(=O)NC2(CC(C)(C)C2)C(=O)N(C)[C@@H](C(CC)CC)C(=O)N(C)[C@H](C(=O)N(C)C)CC(=O)N1C [PP2475] | AA (a compound having 20 or more is denoted as AA) | A (a compound having 10 or more and less than 20 is denoted as A)
